In patent publication US10654834B2 (Venenum Biodesign, LLC, priority 2016, dated 2020) one finds EC50 and Cmax data, which are given here for 15 compounds.

The test system of one data set is Mouse STC-1 cells. As to the kind of experiment: STC-1 GLP-1 assay (GLP-1 secretion). Format: cell-based. The settings on record: Mouse STC-1 cells, GLP-1 secretion, 2 h; read-out: Mouse STC-1 HTRF GLP-1 Activity (EC50). An outline of the steps:
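Mouse STC-1 cells were plated two days ahead in DMEM with 10% charcoal-dextran stripped FBS, then exposed to compound in HBSS with protease inhibitors, DPP-IV inhibitor and 0.1% fatty acid free BSA for 2 h at 37° C. Active GLP-1 in supernatant was quantified by HTRF; EC50 derived from 12-point half-log curves.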
For orientation: Time-resolved FRET reads energy transfer from a long-lived donor to a nearby acceptor.

A short description of data set [1]: Pharmacokinetic profile in mice after oral gavage. Format: in vivo, mouse. Particulars: mouse; fasted male Hilltop mice, 10 mg/kg oral gavage, plasma; read-out: Cmax. Put shortly: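 Fasted 8-week male Hilltop mice given 10 mg/kg orally in 20% PEG400/80% 0.5% CMC + 0.25% Tween-80. EDTA plasma sampled 0-4 h, measured by LC-MS/MS (MRM, positive ion); Cmax and AUC derived non-compartmentally, values being means of three mice.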

By EC50 is commonly meant the concentration at which the effect is half-maximal. One may read the Cmax as the highest concentration seen after dosing. Regarding `N#Cc1ccc(CCNC(=O)[C@@H]2CCCN2c2cc(N3CCC(CCCC(=O)N[C@@H](CCC(=O)O)C(=O)O)CC3)nc(C(F)(F)F)n2)cc1` [Compound 76, (S)-2-(4-(1-(6-((S)-2-((4-cyanophenethyl)carbamoyl)pyrrolidin-1-yl)-2-(trifluoromethyl)pyrimidin-4-yl)piperidin-4-yl)butanamido)-pentanedioic acid], the 50% effective concentration (EC50) in the data set on Mouse STC-1 cells fell in the range of 100 to 999 nM. In addition, in data set [1], the Cmax stood at 3 ng/mL.

In the case of `CS(=O)(=O)NCCNC(=O)CCCC1CCN(c2cc(N3CCC[C@H]3C(=O)NCCc3ccc(C(F)(F)F)cc3)nc(C(F)(F)F)n2)CC1` [Compound 91, (S)-1-(6-(4-(4-((2-(methylsulfonamido)ethyl)amino)-4-oxobutyl)piperidin-1-yl)-2-(trifluoromethyl)pyrimidin-4-yl)-N-(4-(trifluoromethyl)phenethyl)pyrrolidine-2-carboxamide], the EC50 with Mouse STC-1 cells is below 100 nM. The peak concentration (Cmax) in data set [1] came out at 10 ng/mL.

In the case of `N#Cc1ccc(CCNC(=O)[C@@H]2CCCN2c2cc(N3CCC(CCCC(=O)NCCNc4cc(C(=O)O)ncn4)CC3)nc(C(F)(F)F)n2)cc1` [Compound 101, (S)-6-((2-(4-(1-(6-(2-((4-cyanophenethyl)carbamoyl)pyrrolidin-1-yl)-2-(trifluoromethyl)pyrimidin-4-yl)piperidin-4-yl)butanamido)ethyl)amino)-pyrimidine-4-carboxylic acid], the EC50 in the data set with Mouse STC-1 cells was below 100 nM. In addition, the Cmax in data set [1] stood at 0.7 ng/mL.

As to `N#Cc1ccc(CCNC(=O)[C@@H]2CCCN2c2cc(N3CCC(CCCC(=O)N[C@@H](CCCNC(=N)N)C(=O)O)CC3)nc(C(F)(F)F)n2)cc1` [Compound 72, (S)-2-(4-(1-(6-((S)-2-((4-cyanophenethyl)carbamoyl)pyrrolidin-1-yl)-2-(trifluoromethyl)pyrimidin-4-yl)piperidin-4-yl)butanamido)-5-guanidinopentanoic acid], in the data set with Mouse STC-1 cells, the 50% effective concentration (EC50) was 100 to 999 nM. Also, the highest concentration (Cmax) in data set [1] is 1.6 ng/mL.

For `N#Cc1ccc(CCNC(=O)[C@@H]2CCCN2c2cc(N3CCC(CCCC(=O)NCP(=O)(O)O)CC3)nc(C(F)(F)F)n2)cc1` [Compound 64, (S)-((4-(1-(6-(2-((4-cyanophenethyl)carbamoyl)pyrrolidin-1-yl)-2-(trifluoromethyl)pyrimidin-4-yl)piperidin-4-yl)butanamido)methyl)-phosphonic acid], the concentration for a half-maximal effect (EC50) in the data set on Mouse STC-1 cells is 100 to 999 nM. Also, in data set [1], the Cmax was 2.9 ng/mL.

As to `N#Cc1ccc(CCNC(=O)[C@@H]2CCCN2c2cc(N3CCC(CCNC(=O)NCCS(=O)(=O)O)CC3)nc(C(F)(F)F)n2)cc1` [Compound 78, (S)-2-(3-(2-(1-(6-(2-((4-cyanophenethyl)carbamoyl)pyrrolidin-1-yl)-2-(trifluoromethyl)pyrimidin-4-yl)piperidin-4-yl)ethyl)ureido)ethanesulfonic acid], in the data set with Mouse STC-1 cells, the EC50 was below 100 nM. Moreover, the highest concentration (Cmax) in data set [1] worked out at 1.3 ng/mL.

Regarding `N#Cc1ccc(CCNC(=O)[C@@H]2CCCN2c2cc(N3CCC(CCCC(=O)NCS(=O)(=O)O)CC3)nc(C(F)(F)F)n2)cc1` [Compound 66, (S)-(4-(1-(6-(2-((4-cyanophenethyl)carbamoyl)pyrrolidin-1-yl)-2-(trifluoromethyl)pyrimidin-4-yl)piperidin-4-yl)butanamido)-methanesulfonic acid], the EC50 in the data set on Mouse STC-1 cells is below 100 nM. Also, the peak concentration (Cmax) in data set [1] is 7.3 ng/mL.

In the case of `N#Cc1ccc(CCNC(=O)[C@@H]2CCCN2c2cc(N3CCC(CCNC(=O)NCCS(N)(=O)=O)CC3)nc(C(F)(F)F)n2)cc1` [Compound 80, (S)-N-(4-cyanophenethyl)-1-(6-(4-(2-(3-(2-sulfamoylethyl)ureido)-ethyl)piperidin-1-yl)-2-(trifluoromethyl)pyrimidin-4-yl)pyrrolidine-2-carboxamide], the 50% effective concentration (EC50) in the data set on Mouse STC-1 cells fell in the range of 100 to 999 nM. For the same compound, the Cmax in data set [1] was 1.2 ng/mL.

As to `O=C(NCCC1CCN(c2cc(N3CCC[C@H]3C(=O)NCCc3ccc(C(F)(F)F)cc3)nc(C(F)(F)F)n2)CC1)NCCS(=O)(=O)O` [Compound 86, (S)-2-(3-(2-(1-(2-(trifluoromethyl)-6-(2-((4-(trifluoromethyl)phenethyl)-carbamoyl)pyrrolidin-1-yl)pyrimidin-4-yl)piperidin-4-yl)ethyl)ureido)-ethanesulfonic acid], in the data set with Mouse STC-1 cells, the EC50 is below 100 nM. The highest concentration (Cmax) in data set [1] is 13 ng/mL.

As for `N#Cc1ccc(CCNC(=O)[C@@H]2CCCN2c2cc(N3CCC(CCCC(=O)NCC(N)=O)CC3)nc(C(F)(F)F)n2)cc1` [Compound 68, (S)-1-(6-(4-(4-((2-amino-2-oxoethyl)amino)-4-oxobutyl)piperidin-1-yl)-2-(trifluoromethyl)pyrimidin-4-yl)-N-(4-cyanophenethyl)pyrrolidine-2-carboxamide], in the data set on Mouse STC-1 cells, the EC50 fell in the range of 100 to 999 nM. Besides, the Cmax in data set [1] was 15 ng/mL.

As for `O=C(CCCC1CCN(c2cc(N3CCC[C@H]3C(=O)NCCc3ccc(C(F)(F)F)cc3)nc(C(F)(F)F)n2)CC1)NCCNc1ncnc2c1ncn2[C@@H]1O[C@H](CO)C(O)C1O` (stereo partly drawn) [Compound 96, (2S)-1-(6-(4-(4-((2-((9-((2R,5R)-3,4-dihydroxy-5-(hydroxymethyl)-tetrahydrofuran-2-yl)-9H-purin-6-yl)amino)ethyl)amino)-4-oxobutyl)piperidin-1-yl)-2-(trifluoromethyl)-pyrimidin-4-yl)-N-(4-(trifluoromethyl)-phenethyl)-pyrrolidine-2-carboxamide], the EC50 in the data set on Mouse STC-1 cells is below 100 nM. Besides, the Cmax in data set [1] was 1.1 ng/mL.

Regarding `N#Cc1ccc(CCNC(=O)[C@@H]2CCCN2c2cc(N3CCC(CCNC(=O)NCCC(=O)O)CC3)nc(C(F)(F)F)n2)cc1` [Compound 81, (S)-3-(3-(2-(1-(6-(2-((4-cyanophenethyl)carbamoyl)pyrrolidin-1-yl)-2-(trifluoromethyl)pyrimidin-4-yl)piperidin-4-yl)ethyl)ureido)-propanoic acid], in the data set with Mouse STC-1 cells, the concentration for a half-maximal effect (EC50) fell in the range of 100 to 999 nM. In addition, in data set [1], the Cmax turned out to be 60 ng/mL.

On to `N#Cc1ccc(CCNC(=O)[C@@H]2CCCN2c2cc(N3CCC(COCC(=O)O)CC3)nc(C(F)(F)F)n2)cc1` [Compound 88, (S)-2-((1-(6-(2-((4-cyanophenethyl)carbamoyl)pyrrolidin-1-yl)-2-(trifluoromethyl)pyrimidin-4-yl)piperidin-4-yl)methoxy)acetic acid], for which, in the data set on Mouse STC-1 cells, the EC50 is 100 to 999 nM. Moreover, the Cmax in data set [1] amounted to 630 ng/mL.

`N#Cc1ccc(CCNC(=O)[C@@H]2CCCN2c2cc(N3CCC(CO)CC3)nc(C(F)(F)F)n2)cc1` [Compound 1, (S)—N-(4-cyanophenethyl)-1-(6-(4-(hydroxymethyl)piperidin-1-yl)-2-(trifluoromethyl)pyrimidin-4-yl)pyrrolidine-2-carboxamide]: the EC50 in the data set on Mouse STC-1 cells fell in the range of 100 to 999 nM. In addition, in data set [1], the Cmax worked out at 233 ng/mL.

Consider `CS(=O)(=O)NCCNC(=O)CCCC1CCN(c2cc(N3CCC[C@H]3C(=O)NCCc3ccc(C#N)cc3)nc(C(F)(F)F)n2)CC1` [Compound 93], for which the EC50 with Mouse STC-1 cells was below 100 nM. Also, the peak concentration (Cmax) in data set [1] is 5 ng/mL.
